Reference: PMC6629894, “Ruthenium Complexes Containing Heterocyclic Thioamidates Trigger Caspase-Mediated Apoptosis Through MAPK Signaling in Human Hepatocellular Carcinoma Cells” (Frontiers in Oncology, 2019)

Columns and labels:
[1] = system: HepG2 (human hepatocellular carcinoma); experiment: Alamar blue cytotoxicity assay, 72 h; assay type: cell-based
Excerpt: (§1) The cell lines HepG2 (human hepatocellular carcinoma), HL-60 (human promyelocytic leukemia), K-562 (human chronic myelogenous leukemia), B16-F10 (mouse melanoma), MCF-7 (human breast carcinoma), HCT116 (human colon carcinoma), HSC-3 (human oral squamous cell carcinoma), SCC-4 (human oral squamous cell carcinoma), MRC-5 (human lung fibroblast), WT SV40 MEF (wild-type immortalized mouse embryonic fibroblast), and BAD KO SV40 MEF (BAD gene knockout immortalized mouse embryonic fibroblasts) were obtained from the American Type Culture Collection (ATCC, Manassas, VA, USA). Cells were cultured in RPMI 1640 medium (Gibco-BRL, Gaithersburg, MD, USA) with 10% fetal bovine serum (Life, Carlsbad, CA, USA), 2 mM L-glutamine (Vetec Química Fina, Duque de Caxias, RJ, Brazil) and 50 μg/mL gentamycin (Life). For all experiments, adherent cells were collected by treatment with 0.25% trypsin-EDTA solution (Gibco-BRL). All cell lines were cultured in flasks at 37°C in 5% CO2 and were subcultured every 3–4 days to maintain exponential growth. All cell lines were tested for mycoplasma using a mycoplasma staining kit (Sigma-Aldrich Co.) to validate that the cells that were used were free from contamination.
(§2) Cytotoxicity was measured colorimetrically using an Alamar blue method that was performed as previously described ([20], [21]). Cells were seeded in 96-well plates for all experiments (7 × 10^4 cells/mL for adherent cells or 3 × 10^5 cells/mL for suspension cells in 100 μL of medium) and incubated overnight at 37°C with 5% CO2 to allow for adherence. The complexes were dissolved in 0.5% dimethyl sulfoxide (DMSO, Vetec Química Fina) at eight different concentrations from 0.19 to 25 μg/mL and were added to each well and incubated for 72 h. The negative control was treated with the vehicle (0.5% DMSO) that was used to solubilize and dilute the complexes. […] Four (for cell lines) or 24 h (for PBMCs) before the end of incubation, 20 μL of a stock solution (0.312 mg/mL) of resazurin (Sigma-Aldrich Co.) was added to each well. Absorbance was measured at 570 and 600 nm using a SpectraMax 190 Microplate Reader (Molecular Devices, Sunnyvale, CA, USA).

ERK1/2 (pT202/pY204) = experiment: Phosflow analysis of phosphorylated MAPK; assay type: cell-based, human; details: HepG2, 10 μM, 15 min
Experimental: (§3) Phosphorylated extracellular signal-regulated kinase (ERK), JNK/SAPK and p38 MAPK were quantified by flow cytometry as previously described ([26]). The cells were collected and resuspended in 0.5–1 mL of 4% formaldehyde and fixed for 10 min at 37°C. Then, the tubes were chilled on ice for 1 min. The cells were permeabilized by slowly adding ice-cold 100% methanol to the cooled cells while gently vortexing to a final concentration of 90% methanol and incubating for 30 min on ice. After washing with incubation buffer (0.5% bovine serum albumin in PBS), PE mouse anti-JNK/SAPK (pT183/pY185) (ID 562480), PE mouse anti-p38 MAPK (pT180/pY182) (ID 612565), PE mouse anti-ERK1/2 (pT202/pY204) (ID 612566) or PE mouse IgG1,κ isotype control (ID 555749) antibodies, all from BD Biosciences, were added and incubated for 1 h at room temperature. Finally, the cells were washed with PBS, and the cell fluorescence was measured by flow cytometry.
(§4) For all flow cytometry analyses, at least 10^4 events were recorded per sample using a BD LSRFortessa cytometer, BD FACSDiva Software (BD Biosciences) and FlowJo Software 10 (FlowJo Lcc; Ashland, OR, USA). Cellular debris was omitted from the analysis.

JNK/SAPK (pT183/pY185) = experiment: Phosflow analysis of phosphorylated MAPK; assay type: cell-based, human; details: HepG2, 10 μM
Experimental: as §3, §4

p38 MAPK (pT180/pY182) = experiment: Phosflow analysis of phosphorylated MAPK; assay type: cell-based, human; details: HepG2, 10 μM
Experimental: as §3, §4

[2] = system: cancer cells with different histological types; experiment: Cytotoxicity, summary over the panel of cancer cells; assay type: cell-based; details: read-out: IC50 values against cancer cells (summary)
Experimental: as §2

human topoisomerase IB = system: human topoisomerase IB; design: method as in PMID 26795676; details: ref [18], [19]; cited from earlier work
[3] = system: HCT116 (human colon carcinoma); experiment: Alamar blue cytotoxicity assay, 72 h; assay type: cell-based
Excerpt: as §1, §2

[4] = system: HL-60 (human promyelocytic leukemia); experiment: Alamar blue cytotoxicity assay, 72 h; assay type: cell-based
Excerpt: as §1, §2

[5] = system: HSC-3 (human oral squamous cell carcinoma); experiment: Alamar blue cytotoxicity assay, 72 h; assay type: cell-based
Excerpt: as §1, §2

[6] = system: MCF-7 (human breast carcinoma); experiment: Alamar blue cytotoxicity assay, 72 h; assay type: cell-based
Excerpt: as §1, §2

[7] = system: SCC-4 (human oral squamous cell carcinoma); experiment: Alamar blue cytotoxicity assay, 72 h; assay type: cell-based
Excerpt: as §1, §2

HepG2 cells [8] = experiment: DNA content: internucleosomal DNA fragmentation and cell cycle distribution by flow cytometry; assay type: cell-based, human; details: 24 and 48 h
Experimental: (§5) For all subsequent in vitro experiments, 2 mL of a suspension of HepG2 cells were seeded (7 × 10^4 cells/mL) and incubated in a 24-well plate overnight to allow the cells to adhere to the plate surface.
In this assay, cells were harvested in a permeabilization solution containing 0.1% Triton X-100, 2 μg/mL propidium iodide, 0.1% sodium citrate and 100 μg/mL RNAse (all from Sigma-Aldrich Co.) and incubated in the dark for 15 min at room temperature.
as §4

HepG2 cells [9] = experiment: Cell morphology: May-Grunwald-Giemsa staining and light scattering; assay type: cell-based, human; details: 24 and 48 h
Experimental: as §5
To evaluate alterations in the morphology, cells were cultured on a coverslip and stained with May-Grunwald-Giemsa. Morphological changes were examined by light microscopy (Olympus BX41) using Image-Pro software (Media Cybernetics).

Cn1ccnc1[S-].F[P-](F)(F)(F)(F)F.[Ru+2].c1ccc(-c2ccccn2)nc1.c1ccc(P(CCCCP(c2ccccc2)c2ccccc2)c2ccccc2)cc1 [Complex 1, [Ru(mmi)(bipy)(dppb)]PF6]
IC50 ([1]; read-out: IC50 and 95% CI, HepG2, 72 h): 2.6 µM | phosphorylation of ERK1/2 (ERK1/2 (pT202/pY204)): induced the phosphorylation of ERK1/2 | phosphorylation of JNK/SAPK (JNK/SAPK (pT183/pY185)): no significant increase | phosphorylation of p38 MAPK (p38 MAPK (pT180/pY182)): no significant increase | IC50 [2]: < 10 µM | supercoiled DNA relaxation mediated by human topoisomerase IB (human topoisomerase IB): inhibit the supercoiled DNA relaxation

F[P-](F)(F)(F)(F)F.[Ru+2].[S-]C1=NCCS1.c1ccc(-c2ccccn2)nc1.c1ccc(P(CCCCP(c2ccccc2)c2ccccc2)c2ccccc2)cc1 [Complex 2, [Ru(tzdt)(bipy)(dppb)]PF6]
Selectivity index (SI = IC50 [noncancerous cells]/IC50 [cancer cells]) ([3]; MRC-5 vs HCT116): 0.6 | Selectivity index (SI = IC50 [noncancerous cells]/IC50 [cancer cells]) ([3]; PBMCs vs HCT116): 1.0 | Selectivity index (SI = IC50 [noncancerous cells]/IC50 [cancer cells]) ([4]; MRC-5 vs HL-60): 1.5 | Selectivity index (SI = IC50 [noncancerous cells]/IC50 [cancer cells]) ([4]; PBMCs vs HL-60): 2.4 | Selectivity index (SI = IC50 [noncancerous cells]/IC50 [cancer cells]) ([5]; MRC-5 vs HSC-3): 0.7 | Selectivity index (SI = IC50 [noncancerous cells]/IC50 [cancer cells]) ([5]; PBMCs vs HSC-3): 1.2 | Selectivity index (SI = IC50 [noncancerous cells]/IC50 [cancer cells]) ([1]; MRC-5 vs HepG2): 0.8 | Selectivity index (SI = IC50 [noncancerous cells]/IC50 [cancer cells]) ([1]; PBMCs vs HepG2): 1.4 | Selectivity index (SI = IC50 [noncancerous cells]/IC50 [cancer cells]) ([6]; MRC-5 vs MCF-7): 0.2 | Selectivity index (SI = IC50 [noncancerous cells]/IC50 [cancer cells]) ([6]; PBMCs vs MCF-7): 0.4 | IC50 ([6]; read-out: IC50 and 95% CI, MCF-7, 72 h): 7.3 µM | Selectivity index (SI = IC50 [noncancerous cells]/IC50 [cancer cells]) ([7]; MRC-5 vs SCC-4): 0.4 | Selectivity index (SI = IC50 [noncancerous cells]/IC50 [cancer cells]) ([7]; PBMCs vs SCC-4): 0.7 | IC50 [2]: < 10 µM | supercoiled DNA relaxation mediated by human topoisomerase IB (human topoisomerase IB): inhibit the supercoiled DNA relaxation

COc1cccc2c1C(=O)c1c(O)c3c(c(O)c1C2=O)C[C@@](O)(C(=O)CO)C[C@@H]3O[C@H]1C[C@H](N)[C@H](O)[C@H](C)O1 [Doxorubicin, reference compound]
Selectivity index (SI = IC50 [noncancerous cells]/IC50 [cancer cells]) ([3]; MRC-5 vs HCT116): 1.3 | Selectivity index (SI = IC50 [noncancerous cells]/IC50 [cancer cells]) ([3]; PBMCs vs HCT116): 8.3 | Selectivity index (SI = IC50 [noncancerous cells]/IC50 [cancer cells]) ([4]; MRC-5 vs HL-60): 2.0 | Selectivity index (SI = IC50 [noncancerous cells]/IC50 [cancer cells]) ([4]; PBMCs vs HL-60): 12.5 | Selectivity index (SI = IC50 [noncancerous cells]/IC50 [cancer cells]) ([5]; MRC-5 vs HSC-3): 0.8 | Selectivity index (SI = IC50 [noncancerous cells]/IC50 [cancer cells]) ([5]; PBMCs vs HSC-3): 5.0 | Selectivity index (SI = IC50 [noncancerous cells]/IC50 [cancer cells]) ([1]; MRC-5 vs HepG2): 1.3 | Selectivity index (SI = IC50 [noncancerous cells]/IC50 [cancer cells]) ([1]; PBMCs vs HepG2): 8.3 | Selectivity index (SI = IC50 [noncancerous cells]/IC50 [cancer cells]) ([6]; MRC-5 vs MCF-7): 1.0 | Selectivity index (SI = IC50 [noncancerous cells]/IC50 [cancer cells]) ([6]; PBMCs vs MCF-7): 6.3 | IC50 ([7]; Homo sapiens, SCC-4, 72 h, read-out: IC50 and 95% CI): 4 µM | Selectivity index (SI = IC50 [noncancerous cells]/IC50 [cancer cells]) ([7]; MRC-5 vs SCC-4): 0.1 | Selectivity index (SI = IC50 [noncancerous cells]/IC50 [cancer cells]) ([7]; PBMCs vs SCC-4): 0.6 | cell cycle distribution (HepG2 cells [8]; 2 μM): cell cycle arrest at the G2/M phase | internucleosomal DNA fragmentation (sub-G0/G1) (HepG2 cells [8]): DNA fragmentation | cell morphology (HepG2 cells [9]): apoptosis-related morphological alterations
